In one assay the target is fungal (fACC2) (UniProt Q00955). The note with it: read-out: fACC2 (in vitro ACC2 Inhibition Assay, IC50), ADP-Glo, 5 nM ACC2, 20 μM ATP, 20 μM acetyl-CoA. Background: ADP-Glo turns the ADP formed in a reaction into a luminescent signal.
Another assay relates to Rhizoctonia solani (Rs). Nature of the assay: Growth inhibition assay of fungal pathogens, Rs. The class given is cell-based. The note with it: 48 h, mycelial plugs, read-out: Concentration at 90% Inhibition Rs.
In assay [1] the test system is Fusarium virguliforme (Fv). In words: Growth inhibition assay of fungal pathogens, Fv. It is filed as cell-based. To be noted: 48 h, read-out: Concentration at 90% Inhibition Fv. The method, boiled down: (§1)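 Pathogen growth in 17% V8 broth is measured by OD600 at 24 and 48 hours, after blank subtraction, in the presence of compound at 50, 10 and 2 ppm or 2, 0.4 and 0.08 ppm. Inhibition in percent comes from 48-hour readings against the DMSO control.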

A further assay deals with Diplodia maydis (Dm). In words: Growth inhibition assay of fungal pathogens, Dm. The class given is cell-based. To be noted: Stenocarpella maydis, 48 h, Diplodia maydis, read-out: Concentration at 90% Inhibition Dm. In a few lines:
as §1

The test system of the next assay is Septoria tritici (St). In words: Growth inhibition assay of fungal pathogens, St. It is filed as cell-based. To be noted: Zymoseptoria tritici, 48 h, Septoria tritici, read-out: Concentration at 90% Inhibition St. In a few lines:
as §1

Assay [2] has as its system Collectotrichum graminicola (Cg). In words: Growth inhibition assay of fungal pathogens, Cg. The class given is cell-based. The note with it: 48 h, Collectotrichum graminicola, read-out: Concentration at 90% Inhibition Cg. The method, boiled down: as §1
In the next assay the test system is C. albicans. In words: Antifungal Activity Assay (broth microtiter MIC), C. albicans. The class given is cell-based, Candida albicans. The note with it: Candida albicans, ATCC90028, 48 h, ATCC 90028, 3 replicates, MIC recorded at 48 h, read-out: MIC, C. albicans ATCC 90028. The method, boiled down: (§2)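 CLSI M27-A3 microdilution; RPMI 1640+MOPS; 2.5×10^3 CFU/mL final inoculum; cultures from Sabouraud dextrose agar, 35° C overnight; compound working solution 128 μg/mL from 1 mg/mL DMSO stock; visual MIC at 48 h vs growth control.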

A further assay has as its system Botrtyis cinerea (Bc). Nature of the assay: Growth inhibition assay of fungal pathogens, Bc. The class given is cell-based. To be noted: 48 h, Botrtyis cinerea, read-out: Concentration at 90% Inhibition Bc. In a few lines: as §1
For assay [3], the system named is Fusarium moniliforme (Fm). Nature of the assay: Growth inhibition assay of fungal pathogens, Fm. The class given is cell-based. The note with it: Fusarium verticillioides, 48 h, Fusarium moniliforme, read-out: Concentration at 90% Inhibition Fm. The method, boiled down:
as §1

Another assay deals with C. parapsilosis. Nature of the assay: Antifungal Activity Assay (broth microtiter MIC), C. parapsilosis. The class given is cell-based, Candida parapsilosis. The note with it: Lodderomyces parapsilosis, ATCC22019, 48 h, ATCC 22019, 3 replicates, MIC recorded at 48 h, read-out: MIC, C. parapsilosis ATCC 22019. In a few lines:
as §2

Another assay concerns C. krusei. Nature of the assay: Antifungal Activity Assay (broth microtiter MIC), C. krusei. It is filed as cell-based, Candida krusei. To be noted: Pichia kudriavzevii, ATCC6258, 48 h, ATCC 6258, 3 replicates, MIC recorded at 48 h, read-out: MIC, C. krusei ATCC 6258. In a few lines:
as §2

Where [4] appears, read: growth inhibition at 48 hours vs 2% DMSO control.
Where [5] appears, read: growth inhibition vs 2% DMSO control at 48 hours.

The results in this text go back to US10800791B2, “Triazole ACC inhibitors and uses thereof” (Gilead Apollo, LLC, priority 2015, dated 2020).

≈ marks a conversion by molar mass, not a printed value. Where two headings read alike, the source gives them in different places.

By IC50 is commonly meant the midpoint of a concentration-inhibition curve. As usually defined, the MIC is the smallest concentration in the dilution series that meets the test's criterion for growth inhibition.

Sequence of fungal (fACC2) (Q00955 whole entry): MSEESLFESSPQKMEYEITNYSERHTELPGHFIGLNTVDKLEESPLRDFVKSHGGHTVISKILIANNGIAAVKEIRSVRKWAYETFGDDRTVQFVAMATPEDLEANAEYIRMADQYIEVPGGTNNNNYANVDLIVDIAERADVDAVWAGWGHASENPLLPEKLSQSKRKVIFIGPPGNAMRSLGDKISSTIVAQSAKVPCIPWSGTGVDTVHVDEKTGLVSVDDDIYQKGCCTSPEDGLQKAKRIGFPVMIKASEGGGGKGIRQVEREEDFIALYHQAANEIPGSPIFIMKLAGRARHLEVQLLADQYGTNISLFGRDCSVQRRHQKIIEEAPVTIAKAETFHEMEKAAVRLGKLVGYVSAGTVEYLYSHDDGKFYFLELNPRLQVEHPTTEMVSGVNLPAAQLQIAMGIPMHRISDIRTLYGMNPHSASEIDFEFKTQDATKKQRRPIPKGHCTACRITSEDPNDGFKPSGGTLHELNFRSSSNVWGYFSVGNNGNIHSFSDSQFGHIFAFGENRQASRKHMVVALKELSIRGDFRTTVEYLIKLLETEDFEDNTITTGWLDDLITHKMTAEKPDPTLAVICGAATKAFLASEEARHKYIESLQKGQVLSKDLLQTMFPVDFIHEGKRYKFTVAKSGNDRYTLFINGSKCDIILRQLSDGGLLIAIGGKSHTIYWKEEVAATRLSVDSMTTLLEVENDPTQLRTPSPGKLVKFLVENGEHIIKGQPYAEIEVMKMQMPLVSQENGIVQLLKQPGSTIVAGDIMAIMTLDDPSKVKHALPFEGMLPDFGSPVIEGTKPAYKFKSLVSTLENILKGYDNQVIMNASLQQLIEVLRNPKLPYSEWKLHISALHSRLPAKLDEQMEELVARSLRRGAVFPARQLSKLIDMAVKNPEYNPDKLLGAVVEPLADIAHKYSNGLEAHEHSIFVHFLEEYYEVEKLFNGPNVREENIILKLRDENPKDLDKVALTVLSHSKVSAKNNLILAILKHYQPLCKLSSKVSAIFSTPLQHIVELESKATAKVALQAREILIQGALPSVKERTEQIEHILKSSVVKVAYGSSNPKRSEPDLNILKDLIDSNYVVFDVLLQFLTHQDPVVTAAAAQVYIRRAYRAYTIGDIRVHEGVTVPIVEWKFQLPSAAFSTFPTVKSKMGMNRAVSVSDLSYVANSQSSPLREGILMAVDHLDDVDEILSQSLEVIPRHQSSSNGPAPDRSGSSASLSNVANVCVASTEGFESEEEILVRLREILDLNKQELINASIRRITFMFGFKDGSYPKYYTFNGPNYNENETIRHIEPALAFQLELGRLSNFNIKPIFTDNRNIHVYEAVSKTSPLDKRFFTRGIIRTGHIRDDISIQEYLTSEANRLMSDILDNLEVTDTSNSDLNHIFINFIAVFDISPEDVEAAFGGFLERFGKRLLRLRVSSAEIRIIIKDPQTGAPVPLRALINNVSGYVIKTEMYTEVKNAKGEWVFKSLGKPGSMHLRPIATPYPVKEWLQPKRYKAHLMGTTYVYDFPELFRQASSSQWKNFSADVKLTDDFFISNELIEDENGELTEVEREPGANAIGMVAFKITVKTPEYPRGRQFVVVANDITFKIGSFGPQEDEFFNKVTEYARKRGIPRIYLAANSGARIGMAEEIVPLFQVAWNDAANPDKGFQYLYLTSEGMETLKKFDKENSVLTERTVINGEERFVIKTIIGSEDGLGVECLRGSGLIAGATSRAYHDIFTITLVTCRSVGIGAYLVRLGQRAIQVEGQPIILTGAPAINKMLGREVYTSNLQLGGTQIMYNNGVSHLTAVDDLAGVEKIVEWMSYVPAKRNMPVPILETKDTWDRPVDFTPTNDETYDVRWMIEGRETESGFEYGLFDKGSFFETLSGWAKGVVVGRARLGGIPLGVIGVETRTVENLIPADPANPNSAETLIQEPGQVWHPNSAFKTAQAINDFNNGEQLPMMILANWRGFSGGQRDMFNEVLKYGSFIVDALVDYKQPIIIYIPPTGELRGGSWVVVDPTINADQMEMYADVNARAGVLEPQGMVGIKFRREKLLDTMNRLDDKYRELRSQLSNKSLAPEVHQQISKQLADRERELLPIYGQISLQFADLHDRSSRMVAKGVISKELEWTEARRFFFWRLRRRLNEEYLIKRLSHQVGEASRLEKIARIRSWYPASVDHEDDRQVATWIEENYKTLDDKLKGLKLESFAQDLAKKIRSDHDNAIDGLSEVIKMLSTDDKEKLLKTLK

For `COc1ccc(F)cc1[C@H](Cn1c(=O)n(C(C)(C)C(=O)NC(C)C)c(=O)c2c(C)c(-n3nccn3)sc21)OCCC(N)=O` [Compound I-90, (R)-2-(1-(2-(3-amino-3-oxopropoxy)-2-(5-fluoro-2-metho-xyphenyl)ethyl)-5-methyl-2,4-dioxo-6-(2H-1,2,3-triazol-2-yl)-1,4-dihydro-thieno[2,3-d]pyrimidin-3(2H)-yl)-N-isopropyl-2-methylpropanamide], the IC50 lay in the range of 1 to 5 nM at fungal (fACC2) (Table 2a) and 1 to 5 nM at fungal (fACC2) (Table 2b, additional results). Moreover, the IC90 in the assay on Rhizoctonia solani (Rs) (setting [4]) was 2 µg/mL (≈ 3.25 µM); in the assay on Rhizoctonia solani (Rs) (setting [5]), 2 µg/mL (≈ 3.25 µM); in assay [1] (setting [4]), 0.4 µg/mL (≈ 0.65 µM); in assay [1] (setting [5]) it was 0.4 µg/mL (≈ 0.65 µM); in the assay on Diplodia maydis (Dm) (setting [4]), more than 50 µg/mL; with Diplodia maydis (Dm) (setting [5]), more than 50 µg/mL. Moreover, the IC90 with Septoria tritici (St) (setting [4]) is more than 50 µg/mL; in the assay on Septoria tritici (St) (setting [5]), more than 50 µg/mL; in assay [2] (setting [4]), 10 µg/mL (≈ 16.2 µM); in assay [2] (setting [5]), more than 50 µg/mL; in the assay with Botrtyis cinerea (Bc) (setting [4]) it was 2 µg/mL (≈ 3.25 µM); with Botrtyis cinerea (Bc) (setting [5]), 2 µg/mL (≈ 3.25 µM). Moreover, the IC90 in [3] (setting [4]) and in assay [3] (setting [5]) was 0.4 µg/mL (≈ 0.65 µM) in each case. Further, the MIC in the assay on C. albicans (Table 3a) was 2.1 to 4 µg/mL (≈ 3.41 to 6.5 µM); in the assay with C. albicans (Table 3b (additional results)), 0.25 to 1 µg/mL (≈ 0.406 to 1.62 µM); with C. parapsilosis (Table 3a), 2.1 to 4 µg/mL (≈ 3.41 to 6.5 µM); with C. parapsilosis (Table 3b (additional results)) it was 0.25 to 1 µg/mL (≈ 0.406 to 1.62 µM); in the assay on C. krusei (Table 3a), 1.1 to 2 µg/mL (≈ 1.79 to 3.25 µM); with C. krusei (Table 3b (additional results)) it was 0.25 to 1 µg/mL (≈ 0.406 to 1.62 µM).

On to `COc1ccc(F)cc1[C@H](Cn1c(=O)n(C(C)(C)C(=O)NC(C)C)c(=O)c2c(C)c(-n3nccn3)sc21)OCCC#N` [Compound I-91, (R)-2-(1-(2-(2-cyanoethoxy)-2-(5-fluoro-2-methoxy-phenyl)ethyl)-5-methyl-2,4-dioxo-6-(2H-1,2,3-triazol-2-yl)-1,4-dihydro-thieno[2,3-d]pyrimidin-3(2H)-yl)-N-isopropyl-2-methylpropanamide], for which the IC50 at fungal (fACC2) (Table 2a) lay in the range of 1 to 5 nM; at fungal (fACC2) (Table 2b, additional results), 1 to 5 nM. Also, the IC90 (with Rhizoctonia solani (Rs) (setting [4]); with Rhizoctonia solani (Rs) (setting [5]); in [1] (setting [4]); in assay [1] (setting [5]); with Diplodia maydis (Dm) (setting [4]); in the assay on Diplodia maydis (Dm) (setting [5])) was 0.08 µg/mL (≈ 0.134 µM) each time. Besides, the IC90 in the assay on Septoria tritici (St) (setting [4]) was more than 50 µg/mL; in the assay on Septoria tritici (St) (setting [5]) it was more than 50 µg/mL; in assay [2] (setting [4]), 0.08 µg/mL (≈ 0.134 µM); in assay [2] (setting [5]) it was 0.08 µg/mL (≈ 0.134 µM); in the assay on Botrtyis cinerea (Bc) (setting [4]), 0.4 µg/mL (≈ 0.669 µM); in the assay on Botrtyis cinerea (Bc) (setting [5]), 0.4 µg/mL (≈ 0.669 µM). Besides, the IC90 in assay [3] (setting [4]) and in [3] (setting [5]) was 0.08 µg/mL (≈ 0.134 µM) in each case. The MIC in the assay with C. albicans (Table 3a) lay within 0.25 to 1 µg/mL (≈ 0.418 to 1.67 µM); with C. albicans (Table 3b (additional results)), 1.01 to 2 µg/mL (≈ 1.69 to 3.35 µM); with C. parapsilosis (Table 3a), 0.06 to 0.24 µg/mL (≈ 0.1 to 0.402 µM); in the assay on C. parapsilosis (Table 3b (additional results)), 0.25 to 1 µg/mL (≈ 0.418 to 1.67 µM); with C. krusei (Table 3a) it was 0.06 to 0.24 µg/mL (≈ 0.1 to 0.402 µM); in the assay on C. krusei (Table 3b (additional results)), 0.25 to 1 µg/mL (≈ 0.418 to 1.67 µM).
